What was measured:
[1] = test system: giant foxtail; test: Test B pre/postemergence giant foxtail; format: in vivo, Setaria faberii
Procedure, shortened: (§1)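 Response is a visual 0-to-10 score relative to untreated plants, where 0 means no effect and 10 means complete control, taken twelve to sixteen days after application. Treatments went onto soil at planting and onto foliage of 1- to 4-leaf plants, using a surfactant-containing non-phytotoxic solvent.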

[2] = test system: sugar beet; test: Test B pre/postemergence sugar beet; format: in vivo, Beta vulgaris
Procedure, shortened: as §1

[3] = test system: corn; test: Test B pre/postemergence corn; format: in vivo, Zea mays
Procedure, shortened: as §1

[4] = test system: surinam grass; test: Test B pre/postemergence surinam grass; format: in vivo, Brachiaria decumbens
Procedure, shortened: as §1

[5] = test system: cocklebur; test: Test B pre/postemergence cocklebur; format: in vivo, Xanthium strumarium
Procedure, shortened: as §1

[6] = test system: velvetleaf; test: Test B pre/postemergence velvetleaf; format: in vivo, Abutilon theophrasti
Procedure, shortened: as §1

[7] = test system: rice; test: Test B flood test rice; format: in vivo, Oryza sativa; settings: Pre-emergence
Procedure, shortened: (§2)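 Each value is a visual injury score relative to controls, with 10 meaning complete control and 0 no effect. Evaluation took place twelve to sixteen days after the 2-leaf-stage plants were treated and kept in the greenhouse.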

[8] = test system: crabgrass; test: Test B pre/postemergence crabgrass; format: in vivo, Digitaria sanguinalis
Procedure, shortened: as §1

[9] = test system: bamyardgrass; test: Test B flood test barnyardgrass; format: in vivo, Echinochloa crus-galli; settings: Pre-emergence
Procedure, shortened: as §2

[10] = test system: wild oat; test: Test B pre/postemergence wild oat; format: in vivo, Avena fatua
Procedure, shortened: as §1

[11] = test system: bedstraw; test: Test B pre/postemergence bedstraw; format: in vivo, Galium aparine
Procedure, shortened: as §1

[12] = test system: blackgrass; test: Test B pre/postemergence blackgrass; format: in vivo, Alopecurus myosuroides
Procedure, shortened: as §1

[13] = test system: morningglory; test: Test B pre/postemergence morningglory; format: in vivo, Ipomoea hederacea
Procedure, shortened: as §1

[14] = test system: pigweed; test: Test B pre/postemergence pigweed; format: in vivo, Amaranthus retroflexus
Procedure, shortened: as §1

[15] = test system: smallflower flatsedge; test: Test B flood test smallflower flatsedge; format: in vivo, Cyperus difformis; settings: Pre-emergence
Procedure, shortened: as §2

[16] = test system: rape; test: Test B pre/postemergence rape; format: in vivo, Brassica napus
Procedure, shortened: as §1

[17] = Postemergence, Rate 1000 g/ha, scale 0 to 10 (0 no effect, 10 complete control)
[18] = Preemergence, Rate 250 g/ha, scale of 0 to 10 where 0 is no effect and 10 is complete control
[19] = Preemergence, Rate 500 g/ha, scale of 0 to 10 where 0 is no effect and 10 is complete control
[20] = Rate 125 g/ha, Postemergence, scale of 0 to 10 where 0 is no effect and 10 is complete control
[21] = Rate 250 g/ha, Postemergence, scale of 0 to 10 where 0 is no effect and 10 is complete control
[22] = Rate 1000 g/ha, Preemergence, scale 0 to 10 (0 no effect, 10 complete control)
[23] = Rate 500 g/ha, Postemergence, scale 0 to 10, 0 no effect, 10 complete control
[24] = Rate 1000 g/ha, scale 0 to 10 (0 no effect, 10 complete control)
[25] = Rate 125 g/ha, flood test species, scale 0 to 10 where 0 is no effect and 10 is complete control
[26] = Rate 250 g/ha, flood-test species, scale 0 to 10, 0 is no effect, 10 is complete control
[27] = Rate 500 g/ha, flood test species, scale 0 to 10 (0 no effect, 10 complete control)

CCOC(=O)C(C)N(C(=O)n1oc(=O)n(C(C)C)c1=O)c1ccc(F)cc1 (centres unmarked) [Compound 302]
10: Plant response rating, Giant foxtail [1, 22]
7: Giant foxtail plant response rating [1, 17] | Giant foxtail plant response rating [1, 18] | Plant response rating, B. signalgrass [4, 22] | Crabgrass plant response rating [8, 19] | Plant response rating, Crabgrass [8, 22]
6: Giant foxtail plant response rating (0 to 10 scale) ([1]; Preemergence, Rate 125 g/ha) | Plant response rating, Wild oats [10, 22] | Blackgrass plant response rating [12, 17] | Plant response rating, Blackgrass [12, 22]
3: B. signalgrass plant response rating [4, 19] | Redroot pigweed plant response rating [14, 17] | Plant response rating, Redroot pigweed [14, 22]
9: Giant foxtail plant response rating [1, 19]
2: Plant response rating, Giant foxtail [1, 21] | Sugarbeets plant response rating [2, 17] | Sugarbeets plant response rating [2, 18] | Sugarbeets plant response rating [2, 19] | Crabgrass plant response rating [8, 18] | Wild oats plant response rating [10, 18] | Blackgrass plant response rating [12, 18] | Blackgrass plant response rating [12, 23] | Morningglory plant response rating [13, 17] | Plant response rating, Morningglory [13, 21] | Plant response rating, Redroot pigweed [14, 21]
5: Wild oats plant response rating [10, 19] | Blackgrass plant response rating [12, 19]
0: Sugarbeets plant response rating (0 to 10 scale) ([2]; Preemergence, Rate 125 g/ha) | Sugarbeets plant response rating [2, 20] | Corn plant response rating [3, 17] | Corn plant response rating (0 to 10 scale) ([3]; Preemergence, Rate 125 g/ha) | Corn plant response rating [3, 18] | Corn plant response rating [3, 19] | Corn plant response rating [3, 20] | Plant response rating, Corn [3, 21] | Corn plant response rating [3, 23] | Plant response rating, Corn [3, 22] | B. signalgrass plant response rating [4, 17] | B. signalgrass plant response rating (0 to 10 scale, 0 is no effect, 10 is complete control) ([4]; Preemergence, Rate 125 g/ha) | B. signalgrass plant response rating [4, 18] | B. signalgrass plant response rating [4, 20] | Plant response rating, B. signalgrass [4, 21] | B. signalgrass plant response rating [4, 23] | Cocklebur plant response rating [5, 17] | Cocklebur plant response rating (0 to 10 scale) ([5]; Preemergence, Rate 125 g/ha) | Cocklebur plant response rating [5, 18] | Cocklebur plant response rating [5, 19] | Cocklebur plant response rating [5, 20] | Plant response rating, Cocklebur [5, 21] | Cocklebur plant response rating [5, 23] | Plant response rating, Cocklebur [5, 22] | Velvetleaf plant response rating [6, 17] | Velvetleaf plant response rating (0 to 10 scale) ([6]; Preemergence, Rate 125 g/ha) | Velvetleaf plant response rating [6, 18] | Velvetleaf plant response rating [6, 19] | Velvetleaf plant response rating [6, 20] | Plant response rating, Velvetleaf [6, 21] | Rice plant response rating [7, 24] | Rice plant response rating [7, 25] | Rice plant response rating [7, 26] | Rice plant response rating [7, 27] | Crabgrass plant response rating (0 to 10 scale) ([8]; Preemergence, Rate 125 g/ha) | Crabgrass plant response rating [8, 20] | Plant response rating, Crabgrass [8, 21] | Barnyardgrass plant response rating [9, 24] | Barnyardgrass plant response rating [9, 25] | Barnyardgrass plant response rating [9, 26] | Barnyardgrass plant response rating [9, 27] | Wild oats plant response rating [10, 17] | Wild oats plant response rating (0 to 10 scale) ([10]; Preemergence, Rate 125 g/ha) | Wild oats plant response rating [10, 20] | Plant response rating, Wild oats [10, 21] | Bedstraw plant response rating [11, 17] | Bedstraw plant response rating (0 to 10 scale) ([11]; Preemergence, Rate 125 g/ha) | Bedstraw plant response rating [11, 18] | Bedstraw plant response rating [11, 19] | Bedstraw plant response rating [11, 20] | Plant response rating, Bedstraw [11, 21] | Bedstraw plant response rating [11, 23] | Plant response rating, Bedstraw [11, 22] | Blackgrass plant response rating (0 to 10 scale) ([12]; Preemergence, Rate 125 g/ha) | Blackgrass plant response rating [12, 20] | Plant response rating, Blackgrass [12, 21] | Morningglory plant response rating (0 to 10 scale) ([13]; Preemergence, Rate 125 g/ha) | Morningglory plant response rating [13, 18] | Morningglory plant response rating [13, 19] | Plant response rating, Morningglory [13, 22] | Redroot pigweed plant response rating (0 to 10 scale) ([14]; Preemergence, Rate 125 g/ha) | Redroot pigweed plant response rating [14, 18] | Redroot pigweed plant response rating [14, 19] | S. Flatsedge plant response rating [15, 24] | S. Flatsedge plant response rating [15, 25] | S. Flatsedge plant response rating [15, 26] | S. Flatsedge plant response rating [15, 27] | Rape plant response rating [16, 17] | Rape plant response rating (0 to 10 scale) ([16]; Preemergence, Rate 125 g/ha) | Rape plant response rating [16, 18] | Rape plant response rating [16, 20] | Plant response rating, Rape [16, 21]
8: Plant response rating, Rape [16, 22]
1: Giant foxtail plant response rating [1, 20] | Plant response rating, Sugarbeets [2, 21] | Crabgrass plant response rating [8, 17] | Morningglory plant response rating [13, 20] | Redroot pigweed plant response rating [14, 20]
4: Plant response rating, Sugarbeets [2, 22] | Plant response rating, Velvetleaf [6, 22]

Source: patent US6737383B1, “Herbicidal oxadiazolidines” (priority 1999, dated 2004)
